# Experimental data reported in PMC7824442, “In Escherichia coli Ammonia Inhibits Cytochrome bo3 But Activates Cytochrome bd-I” (Antioxidants, 2020).
# Assays:
# cytochrome bd-I = target: T1, cytochrome bd-I (Escherichia coli, UniProt P0ABJ9); test: UV-visible absorption titration of the isolated oxidized enzyme at pH […] (Soret region, […] nm); activation of O2 reductase activity also shown; type: binding
# T1 construct: gene cydA; isolated cytochrome bd-I; with other subunits of the four-subunit cytochrome bd-I complex
# cytochrome bo3 = target: T2, cytochrome bo3 (Escherichia coli, UniProt P0ABI8); test: UV-visible absorption titration of the isolated oxidized enzyme at pH […] (Soret region, […] nm); inhibition of O2 reductase activity also shown; type: binding
# T2 construct: gene cyoB; isolated four-subunit His-tagged cytochrome bo3; with other subunits of the four-subunit cytochrome bo3 complex
# T2 sequence (P0ABJ1 25-315): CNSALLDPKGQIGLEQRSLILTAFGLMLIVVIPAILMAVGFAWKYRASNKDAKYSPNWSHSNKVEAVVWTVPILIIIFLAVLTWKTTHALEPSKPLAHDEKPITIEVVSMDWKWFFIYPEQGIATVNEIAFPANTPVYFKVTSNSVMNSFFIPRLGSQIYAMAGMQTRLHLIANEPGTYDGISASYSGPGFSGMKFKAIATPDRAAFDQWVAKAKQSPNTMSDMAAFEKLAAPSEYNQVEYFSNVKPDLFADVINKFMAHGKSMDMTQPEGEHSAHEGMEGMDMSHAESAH
# T2 sequence (P0ABJ6 whole entry, further chain): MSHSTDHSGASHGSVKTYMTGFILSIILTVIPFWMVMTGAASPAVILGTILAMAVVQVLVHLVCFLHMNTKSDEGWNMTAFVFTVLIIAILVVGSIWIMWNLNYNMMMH
# T2 sequence (P0ABI8 whole entry): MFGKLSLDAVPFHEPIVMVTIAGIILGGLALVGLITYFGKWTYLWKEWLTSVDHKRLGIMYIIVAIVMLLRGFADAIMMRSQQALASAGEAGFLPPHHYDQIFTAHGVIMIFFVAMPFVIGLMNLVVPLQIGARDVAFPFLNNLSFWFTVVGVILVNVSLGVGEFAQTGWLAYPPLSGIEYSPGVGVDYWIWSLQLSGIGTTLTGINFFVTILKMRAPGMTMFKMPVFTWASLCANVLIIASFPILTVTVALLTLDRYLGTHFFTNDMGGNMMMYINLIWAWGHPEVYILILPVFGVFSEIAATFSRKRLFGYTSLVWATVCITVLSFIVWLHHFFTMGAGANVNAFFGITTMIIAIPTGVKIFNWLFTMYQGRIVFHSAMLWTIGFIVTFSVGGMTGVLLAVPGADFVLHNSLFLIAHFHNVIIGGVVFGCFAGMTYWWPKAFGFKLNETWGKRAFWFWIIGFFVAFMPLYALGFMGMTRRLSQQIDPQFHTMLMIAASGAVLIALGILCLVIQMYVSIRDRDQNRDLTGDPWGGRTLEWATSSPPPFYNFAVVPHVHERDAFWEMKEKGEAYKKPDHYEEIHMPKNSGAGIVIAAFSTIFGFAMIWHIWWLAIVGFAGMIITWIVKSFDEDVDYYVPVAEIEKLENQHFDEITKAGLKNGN
# T2 sequence (P0ABJ3 whole entry, further chain): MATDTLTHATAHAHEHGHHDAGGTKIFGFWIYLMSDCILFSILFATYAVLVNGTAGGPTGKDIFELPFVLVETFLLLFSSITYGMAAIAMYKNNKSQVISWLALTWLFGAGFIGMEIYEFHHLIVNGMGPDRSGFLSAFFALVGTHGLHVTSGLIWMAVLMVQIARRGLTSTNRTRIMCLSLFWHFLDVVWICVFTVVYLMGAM
# T1 sequence (P0ABK2 whole entry): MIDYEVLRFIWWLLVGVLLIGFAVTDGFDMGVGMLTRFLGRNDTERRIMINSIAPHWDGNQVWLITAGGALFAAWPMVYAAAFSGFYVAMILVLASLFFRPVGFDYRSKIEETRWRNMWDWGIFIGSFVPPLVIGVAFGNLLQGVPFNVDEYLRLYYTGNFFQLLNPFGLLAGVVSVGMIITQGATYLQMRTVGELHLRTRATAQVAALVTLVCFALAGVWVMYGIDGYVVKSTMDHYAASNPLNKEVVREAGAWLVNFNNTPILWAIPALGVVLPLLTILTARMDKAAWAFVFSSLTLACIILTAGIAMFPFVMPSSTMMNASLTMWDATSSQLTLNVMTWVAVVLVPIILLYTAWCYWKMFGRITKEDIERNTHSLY
# T1 sequence (P0ABJ9 whole entry): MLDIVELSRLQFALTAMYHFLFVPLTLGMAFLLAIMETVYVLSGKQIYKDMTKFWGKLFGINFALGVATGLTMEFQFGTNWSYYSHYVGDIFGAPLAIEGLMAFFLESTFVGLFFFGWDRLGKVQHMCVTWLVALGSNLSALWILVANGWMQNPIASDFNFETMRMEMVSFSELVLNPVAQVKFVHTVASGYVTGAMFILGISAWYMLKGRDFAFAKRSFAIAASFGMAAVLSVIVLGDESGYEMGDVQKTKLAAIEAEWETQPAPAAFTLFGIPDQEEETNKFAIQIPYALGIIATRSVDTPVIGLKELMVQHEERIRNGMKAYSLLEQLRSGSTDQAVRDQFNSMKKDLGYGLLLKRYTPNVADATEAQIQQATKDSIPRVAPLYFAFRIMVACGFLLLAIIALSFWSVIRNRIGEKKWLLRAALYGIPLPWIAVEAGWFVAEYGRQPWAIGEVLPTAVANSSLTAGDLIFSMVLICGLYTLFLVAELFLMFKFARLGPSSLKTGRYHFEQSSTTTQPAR
compound,measurement,setting,value
N [ammonia],Kd,cytochrome bd-I,7.2 ± 1.4 mM
same,Kd,cytochrome bo3,4.9 ± 0.5 mM
